Assay results taken from patent US6417222B1, “[2-substituted-5-[3-thienyl)-benzyl]-2- ([2-isopropoxy-5-fluoro]-phenyoxy)-ethyl]-amine derivatives, method for the production and use thereof as medicaments” (Pierre Fabre Medicament, priority 1999, dated 2002).

Key:
[1] = Cataleptogenic power (extrapyramidal side effects); conditions: rat, in vivo; rats, oral administration; read-out: Catalepsy ED50
Description: (§1) 2—Evaluation of the antagonist activity of the D2 receptors and of the cataleptogenic effects of the compounds of the invention in vivo
The test for evaluating the propensity of the products of the invention to cause side effects of extrapyramidal order is based on their cataleptogenic power, measured in rats, according to the method described in Eur. J. Pharmacol. 1996, 313, 25.

receptors of the D2 type = receptors of the D2 type (Homo sapiens, UniProt P14416); experiment: Affinity for D2 receptors by displacement of (3H) YM-09151-2; assay type: binding; conditions: mean of at least 3 experiments, read-out: D2 pKi (converted)
Chain of receptors of the D2 type (P14416 whole entry): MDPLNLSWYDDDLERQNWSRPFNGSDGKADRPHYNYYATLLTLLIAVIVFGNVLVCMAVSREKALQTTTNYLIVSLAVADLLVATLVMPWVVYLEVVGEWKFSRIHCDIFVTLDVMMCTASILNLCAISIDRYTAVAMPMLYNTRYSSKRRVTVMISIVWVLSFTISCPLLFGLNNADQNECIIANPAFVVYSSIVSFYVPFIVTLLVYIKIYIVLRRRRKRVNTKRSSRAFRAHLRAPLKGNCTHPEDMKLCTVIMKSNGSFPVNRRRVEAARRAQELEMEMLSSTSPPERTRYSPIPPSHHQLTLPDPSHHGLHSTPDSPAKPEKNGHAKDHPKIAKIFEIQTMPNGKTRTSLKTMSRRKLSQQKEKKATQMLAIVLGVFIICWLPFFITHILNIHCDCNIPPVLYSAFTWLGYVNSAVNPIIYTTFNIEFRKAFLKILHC
Description: 1—Measurement of the affinity of the compounds of the invention for the D2 receptors.
The affinity of the compounds of the invention for the receptors of the D2 type was determined by measuring the displacement of (^3H) YM-09151-2 (NET-1004 70-87 Ci/mmol), according to the method described in Naunyn-Schimiedeberg's Arch. Pharmacol. Methods, 1985, 329, 333. The pKi values (−log Ki) are given in the form of a mean ±SEM of at least 3 experiments.

D2 receptors = biological target: T1, D2 receptors (Rattus norvegicus, UniProt P61169); experiment: Inhibition of the behavior induced by methylphenidate (antidopaminergic activity in vivo); conditions: rats, oral administration, read-out: Normalization ED50
T1 construct: from tissue; host or cells: whole living rat (central nervous system)
T1 sequence (P61169 whole entry): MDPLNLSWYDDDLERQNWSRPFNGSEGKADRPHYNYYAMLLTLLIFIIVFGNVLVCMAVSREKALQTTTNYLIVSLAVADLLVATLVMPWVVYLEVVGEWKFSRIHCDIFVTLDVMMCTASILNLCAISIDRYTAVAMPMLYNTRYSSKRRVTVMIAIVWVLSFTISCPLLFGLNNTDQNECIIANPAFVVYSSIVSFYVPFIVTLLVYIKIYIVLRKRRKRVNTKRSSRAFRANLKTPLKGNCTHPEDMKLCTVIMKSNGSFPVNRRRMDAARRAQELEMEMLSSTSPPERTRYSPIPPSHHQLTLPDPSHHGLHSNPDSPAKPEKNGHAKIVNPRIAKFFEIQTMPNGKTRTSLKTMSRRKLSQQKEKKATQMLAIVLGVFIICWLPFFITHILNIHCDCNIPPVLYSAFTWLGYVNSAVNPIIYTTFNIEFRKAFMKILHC
Description: as §1

| Compound | ED50 [1] [mg/kg] | Ki (receptors of the D2 type) [nM] | ED50 (D2 receptors) [mg/kg] |
| --- | --- | --- | --- |
| CC(C)Oc1ccc(F)cc1OCCNCc1cccc(-c2ccsc2)c1 [la, [3-(3-Thienyl)benzyl]-[2-([5-fluoro-2-isopropoxy]-phenoxy)ethyl]amine] | > 40 | 0.355 | 0.7 |
| Cc1nc2n(c(=O)c1CCN1CCC(c3noc4cc(F)ccc34)CC1)CCCC2 [Risperidone, reference compound] | – | – | 6.5 |
